# Experimental data reported in publication PMC8406298, “Discovery of Fungus-Specific Targets and Inhibitors Using Chemical Phenotyping of Pathogenic Spore Germination” (mBio, 2021).
# What was measured:
# [1] = system: normal human dermal fibroblasts (NHDF) cells; test: Fibroblast cytotoxicity (CellTiter-Glo); type: cell-based; details: 10 µM
# Method: PrimaPure normal human dermal fibroblasts (NHDF) cells (Genlatis PH10605A) were cultured and passaged in fibroblast growth medium (Genlatis PM116500) according to the manufacturer’s protocol. NHDF cells (1 × 10^3 per well) were plated in a 384-well plate in cell culture medium. The cells were incubated with each compound of interest at 10 μM concentration for 72 h at 37°C and 5% CO2. Following treatment, CellTiter-Glo (Promega) reagent was used to assay ATP-dependent luminescence and thus provide a measure of cell viability. […] For cytotoxicity dose-response curves (Fig. 4C and Fig. 5C), compounds were titrated from 80 μM to 0.5 μM in duplicates.
# [2] = system: Cryptococcus yeast (CHY3833 and CHY3836); test: Yeast replication secondary screen (OD600); type: cell-based, Cryptococcus neoformans serotype D (deneoformans); details: 10 μM, 12 h at 30°C
# Method: (ii) Yeast replication. CHY3833 and CHY3836 were each grown in YPD liquid overnight at 30°C to saturation and then resuspended in 0.5× YPD at an OD600 of 0.005. Strains were aliquoted into 384-well plates with inhibitors and grown for 12 h at 30°C at […] before OD600 readings were taken. Compounds that caused a >10% decrease in growth were considered yeast growth inhibitors.
Structure (SMILES),Cytotoxicity: Relative Cell Viability (% of Negative Control) [1],Yeast Inhibition: % Inhibition [2]
O=C(Nc1cccc(C(F)(F)F)c1)C1=Cc2ccccc2OC1 [compound 1475928],58.1 % of Negative Control,77.9%
O=C(NCCc1ccccc1)c1n[nH]c2ccccc12 [compound 1505880],87.7 % of Negative Control,77.5%
Cc1c(-n2c(-c3ccccc3)csc2=NC(=O)c2ccccc2)c(=O)n(-c2ccccc2)n1C [compound 1528700],93.1 % of Negative Control,-8.8%
CCCCNC(=O)COc1c(C)cc(Br)cc1C [compound 1570496],84.5 % of Negative Control,47.1%
Cc1ccccc1OCCSCc1nc2ccccc2[nH]1 [compound 1589778],86.0 % of Negative Control,72.5%
Clc1ccc(OCCSCc2nc3ccccc3[nH]2)cc1 [compound 1589789],74.0 % of Negative Control,79.6%
O=C1/C(=C/c2ccncc2)SC(=S)N1Nc1ccccc1 [compound 1636480],86.8 % of Negative Control,67.7%
CCCOc1ccc(CSc2nc3ccccc3[nH]2)cc1 [compound 1653621],75.1 % of Negative Control,77.4%
CC(=O)c1ccc(OCCOc2ccc(C#N)cc2)cc1 [compound 1713451],106.4 % of Negative Control,41.1%
CC(C)(c1ccc(O)cc1)c1ccc(Cl)cc1 [compound 1992009],2.1 % of Negative Control,96.6%
COc1ccc(CCNc2ncnc3scc(-c4cccs4)c23)cc1OC [compound 2008712],97.9 % of Negative Control,68.9%
O=C(NCc1ccco1)c1sc2ccccc2c1Cl [compound 2049334],88.3 % of Negative Control,53.3%
Cc1cc(C)c2sc(NN)nc2c1 [compound 2049855],38.9 % of Negative Control,100.6%
CCCCSc1nc2ccc(C)cc2[nH]1 [compound 2129690],104.3 % of Negative Control,80.1%
Cc1ccc(S(=O)(=O)Nc2cc(Sc3nc[nH]n3)c(O)c3ccccc23)c(C)c1 [compound 2133779],3.5 % of Negative Control,98.3%
Cc1nc(NC(=O)CCl)sc1C(=O)OCC(C)C [compound 2139195],6.3 % of Negative Control,99.1%
COc1ccc(NC(=O)CN2CCN(c3c(C)cccc3C)CC2)cc1 [compound 2200363],71.8 % of Negative Control,64.6%
c1nc(N2CCCCCC2)c2ccsc2n1 [compound 2238990],79.6 % of Negative Control,57.0%
CC1CCN(c2ncnc3sccc23)CC1 [compound 2238992],70.0 % of Negative Control,73.6%
Cc1nc(NCc2ccccc2)c2ccsc2n1 [compound 2238994],75.7 % of Negative Control,84.9%
Cc1nc(NC2CCCCC2)c2ccsc2n1 [compound 2239015],75.4 % of Negative Control,45.4%
